Bridge positions count the residues as written; N and C are the ends. Square brackets hold non-standard residues; d marks the D form. Peptide text beside a SMILES is read from it. * marks the point of attachment. ξ: configuration not given here. Bip = N[C@@H](Cc1ccc(-c2ccccc2)cc1)C(=O)O; Phe(3-Me) = Cc1cccc(C[C@H](N)C(=O)O)c1; Cha = N[C@@H](CC1CCCCC1)C(=O)O; Cit = NC(=O)NCCC[C@H](N)C(=O)O; Thr(3ξ) = CC(O)[C@H](N)C(=O)O; Carboxymethyl = O=C(O)C*; Orn = NCCC[C@H](N)C(=O)O; Aun = NCCCCCCCCCCC(=O)O; Dab = NCC[C@H](N)C(=O)O; Dap = NC[C@H](N)C(=O)O; AEEA = NCCOCCOCC(=O)O
Molecular target: T1, PD-1/PD-L1 interaction (PE-labeled human PD-L1-Ig binding to Jurkat cell line over-expressing human PD-1) (Homo sapiens, UniProt Q15116)
T1 construct: expressed in transfected cells; host or cells: Jurkat
T1 sequence (Q15116 25-288): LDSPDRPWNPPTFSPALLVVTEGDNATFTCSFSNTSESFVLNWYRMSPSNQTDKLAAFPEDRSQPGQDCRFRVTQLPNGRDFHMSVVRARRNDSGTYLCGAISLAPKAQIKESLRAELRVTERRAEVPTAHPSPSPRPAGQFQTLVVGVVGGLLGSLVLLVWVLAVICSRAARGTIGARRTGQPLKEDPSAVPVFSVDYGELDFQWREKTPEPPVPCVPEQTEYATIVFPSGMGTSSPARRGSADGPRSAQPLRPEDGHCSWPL
Assay: Jurkat-PD-1 Cell Binding High-Content Screening Assay (CBA)
Type: cell-based
Conditions: Jurkat cell line over-expressing human PD-1; PE-labeled PD-L1-Ig 20 nM final; read-out: Jurkat hPD1-PDL1 IC50
Summary of the method: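 Jurkat cells stably over-expressing human PD-1 were seeded in DMEM with 10% fetal calf serum and pre-incubated with compound for 2 h at 37° C. PE-labeled human PD-L1-Ig was then added at 20 nM final for 1 hour, after which cells were fixed with paraformaldehyde, Hoechst-stained and imaged by high-content microscopy.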

`Cc1cccc(C[C@@H]2NC(=O)[C@H](CC(=O)O)NC(=O)[C@H](Cc3ccc(OCC(=O)O)cc3)NC(=O)[C@H](CN)NC(=O)CSC[C@@H](C(=O)N[C@@H](CCN)C(=O)NCCOCCOCC(=O)NCCCCCCCCCCC(=O)O)NC(=O)[C@H](C(C)O)NC(=O)[C@H](Cc3ccc(O)cc3)NC(=O)[C@H](CC3CCCCC3)NC(=O)[C@H](CCN)NC(=O)[C@@H](CC(C)C)NC(=O)[C@H](CCCN)NC(=O)[C@H](Cc3ccc(O)cc3)NC(=O)[C@H](Cc3ccc(-c4ccccc4)cc3)NC(=O)[C@H](Cc3ccc(O)cc3)NC2=O)c1` (stereo partly drawn) [Compound 2569] ({CH2CO}-[Dap]Y(Carboxymethyl)D[Phe(3-Me)]Y[Bip]Y[Orn][dL][Dab][Cha]Y[Thr(3ξ)]C[Dab][AEEA][Aun]-OH; thioether N-14) was tested, and the IC50 was 80.2 nM.

For `Cc1cccc(C[C@@H]2NC(=O)[C@H](CC(=O)O)NC(=O)[C@H](Cc3ccc(OCC(=O)O)cc3)NC(=O)[C@H](CN)NC(=O)CSC[C@@H](C(=O)N[C@@H](CCN)C(=O)NCCOCCOCC(=O)NCCCCCCCCCCC(=O)O)NC(=O)[C@H](CO)NC(=O)[C@H](Cc3ccc(O)cc3)NC(=O)[C@H](CC3CCCCC3)NC(=O)[C@H](CCN)NC(=O)[C@@H](CC(C)C)NC(=O)[C@H](CCCN)NC(=O)[C@H](Cc3ccc(O)cc3)NC(=O)[C@H](Cc3ccc(-c4ccccc4)cc3)NC(=O)[C@H](Cc3ccc(O)cc3)NC2=O)c1` [Compound 2570] ({CH2CO}-[Dap]Y(Carboxymethyl)D[Phe(3-Me)]Y[Bip]Y[Orn][dL][Dab][Cha]YSC[Dab][AEEA][Aun]-OH; thioether N-14), the IC50 was 31.9 nM.

`Cc1cccc(C[C@@H]2NC(=O)[C@H](CC(=O)O)NC(=O)[C@H](Cc3ccc(OCC(=O)O)cc3)NC(=O)[C@H](CN)NC(=O)CSC[C@@H](C(=O)N[C@@H](CCN)C(=O)NCCOCCOCC(=O)NCCCCCCCCCCC(=O)O)NC(=O)[C@H](C(C)O)NC(=O)[C@H](Cc3ccc(O)cc3)NC(=O)[C@H](CC3CCCCC3)NC(=O)[C@H](CCN)NC(=O)[C@@H](CC(C)C)NC(=O)[C@H](CCCN)NC(=O)[C@H](CCCNC(N)=O)NC(=O)[C@H](Cc3ccc(-c4ccccc4)cc3)NC(=O)[C@H](Cc3ccc(O)cc3)NC2=O)c1` (stereo partly drawn) [Compound 2571] ({CH2CO}-[Dap]Y(Carboxymethyl)D[Phe(3-Me)]Y[Bip][Cit][Orn][dL][Dab][Cha]Y[Thr(3ξ)]C[Dab][AEEA][Aun]-OH; thioether N-14) showed an IC50 of 13 nM.

Compound `Cc1cccc(C[C@@H]2NC(=O)[C@H](CC(=O)O)NC(=O)[C@H](Cc3ccc(OCC(=O)O)cc3)NC(=O)[C@H](CN)NC(=O)CSC[C@@H](C(=O)N[C@@H](CCN)C(=O)NCCOCCOCC(=O)NCCCCCCCCCCC(=O)O)NC(=O)[C@H](CCCN)NC(=O)[C@H](Cc3ccc(O)cc3)NC(=O)[C@H](CC3CCCCC3)NC(=O)[C@H](CCN)NC(=O)[C@@H](CC(C)C)NC(=O)[C@H](CCCN)NC(=O)[C@H](CCCNC(N)=O)NC(=O)[C@H](Cc3ccc(-c4ccccc4)cc3)NC(=O)[C@H](Cc3ccc(O)cc3)NC2=O)c1` [Compound 2572] ({CH2CO}-[Dap]Y(Carboxymethyl)D[Phe(3-Me)]Y[Bip][Cit][Orn][dL][Dab][Cha]Y[Orn]C[Dab][AEEA][Aun]-OH; thioether N-14) has an IC50 of 21.6 nM.

With `Cc1cccc(C[C@@H]2NC(=O)[C@H](CC(=O)O)NC(=O)[C@H](Cc3ccc(OCC(=O)O)cc3)NC(=O)[C@H](CN)NC(=O)CSC[C@@H](C(=O)N[C@@H](CCN)C(=O)NCCOCCOCC(=O)NCCCCCCCCCCC(=O)O)NC(=O)[C@H](C(C)O)NC(=O)[C@H](Cc3ccc(O)cc3)NC(=O)[C@H](CC3CCCCC3)NC(=O)[C@H](CCN)NC(=O)[C@@H](CC(C)C)NC(=O)[C@H](CCCN)NC(=O)[C@H](C(C)C)NC(=O)[C@H](Cc3ccc(-c4ccccc4)cc3)NC(=O)[C@H](Cc3ccc(O)cc3)NC2=O)c1` (stereo partly drawn) [Compound 2573] ({CH2CO}-[Dap]Y(Carboxymethyl)D[Phe(3-Me)]Y[Bip]V[Orn][dL][Dab][Cha]Y[Thr(3ξ)]C[Dab][AEEA][Aun]-OH; thioether N-14) the IC50 was 47.6 nM.

In the case of `Cc1cccc(C[C@@H]2NC(=O)[C@H](CC(=O)O)NC(=O)[C@H](Cc3ccc(OCC(=O)O)cc3)NC(=O)[C@H](CN)NC(=O)CSC[C@@H](C(=O)N[C@@H](CCN)C(=O)NCCOCCOCC(=O)NCCCCCCCCCCC(=O)O)NC(=O)[C@H](CCCN)NC(=O)[C@H](Cc3ccc(O)cc3)NC(=O)[C@H](CC3CCCCC3)NC(=O)[C@H](CCN)NC(=O)[C@@H](CC(C)C)NC(=O)[C@H](CCCN)NC(=O)[C@H](C(C)C)NC(=O)[C@H](Cc3ccc(-c4ccccc4)cc3)NC(=O)[C@H](Cc3ccc(O)cc3)NC2=O)c1` [Compound 2574] ({CH2CO}-[Dap]Y(Carboxymethyl)D[Phe(3-Me)]Y[Bip]V[Orn][dL][Dab][Cha]Y[Orn]C[Dab][AEEA][Aun]-OH; thioether N-14), the IC50 is reported as 28.3 nM.

With `Cc1cccc(C[C@@H]2NC(=O)[C@H](CC(=O)O)NC(=O)[C@H](Cc3ccc(OCC(=O)O)cc3)NC(=O)[C@H](CN)NC(=O)CSC[C@@H](C(=O)N[C@@H](CCN)C(=O)NCCOCCOCC(=O)NCCCCCCCCCCC(=O)O)NC(=O)[C@H](C(C)O)NC(=O)[C@H](C(C)C)NC(=O)[C@H](CC3CCCCC3)NC(=O)[C@H](CCN)NC(=O)[C@@H](CC(C)C)NC(=O)[C@H](CCCN)NC(=O)[C@H](Cc3ccc(O)cc3)NC(=O)[C@H](Cc3ccc(-c4ccccc4)cc3)NC(=O)[C@H](Cc3ccc(O)cc3)NC2=O)c1` (stereo partly drawn) [Compound 2575] ({CH2CO}-[Dap]Y(Carboxymethyl)D[Phe(3-Me)]Y[Bip]Y[Orn][dL][Dab][Cha]V[Thr(3ξ)]C[Dab][AEEA][Aun]-OH; thioether N-14) the IC50 was 10.2 nM.

Compound `Cc1cccc(C[C@@H]2NC(=O)[C@H](CC(=O)O)NC(=O)[C@H](Cc3ccc(OCC(=O)O)cc3)NC(=O)[C@H](CN)NC(=O)CSC[C@@H](C(=O)N[C@@H](CCN)C(=O)NCCOCCOCC(=O)NCCCCCCCCCCC(=O)O)NC(=O)[C@H](CCCN)NC(=O)[C@H](C(C)C)NC(=O)[C@H](CC3CCCCC3)NC(=O)[C@H](CCN)NC(=O)[C@@H](CC(C)C)NC(=O)[C@H](CCCN)NC(=O)[C@H](Cc3ccc(O)cc3)NC(=O)[C@H](Cc3ccc(-c4ccccc4)cc3)NC(=O)[C@H](Cc3ccc(O)cc3)NC2=O)c1` [Compound 2576] ({CH2CO}-[Dap]Y(Carboxymethyl)D[Phe(3-Me)]Y[Bip]Y[Orn][dL][Dab][Cha]V[Orn]C[Dab][AEEA][Aun]-OH; thioether N-14) has an IC50 of 10.4 nM.

Work on `Cc1cccc(C[C@@H]2NC(=O)[C@H](CC(=O)O)NC(=O)[C@H](Cc3ccc(OCC(=O)O)cc3)NC(=O)[C@H](CN)NC(=O)CSC[C@@H](C(=O)N[C@@H](CCN)C(=O)NCCOCCOCC(=O)NCCCCCCCCCCC(=O)O)NC(=O)[C@H](C(C)O)NC(=O)[C@H](Cc3ccc(O)cc3)NC(=O)[C@H](CC3CCCCC3)NC(=O)[C@H](CCN)NC(=O)[C@@H](CC(C)C)NC(=O)[C@H](CCCN)NC(=O)[C@H](Cc3ccc(O)cc3)NC(=O)[C@H](Cc3ccc(-c4ccccc4)cc3)NC(=O)[C@H](C(C)C)NC2=O)c1` (stereo partly drawn) [Compound 2577] ({CH2CO}-[Dap]Y(Carboxymethyl)D[Phe(3-Me)]V[Bip]Y[Orn][dL][Dab][Cha]Y[Thr(3ξ)]C[Dab][AEEA][Aun]-OH; thioether N-14) yielded an IC50 of 34 nM.

— US20260022142A1, “MACROCYCLIC IMMUNOMODULATORS” (Bristol-Myers Squibb Company, priority 2022, published 2026)
